Reference: ChEMBL document CHEMBL1201862, “PubChem BioAssay data set” (2004)
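Compound exposure: 48 hours, 5 concentrations, 96-well plates. Here, GI50 denotes the concentration required for 50% inhibition of growth.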 Activity calls are given as the source filed them. No stated cut-off is given here; in the data, active = GI50 up to about 1.1 µM and inactive = higher.

Tests used:
Test in all cases: NCI tumour cell line growth inhibition, 48 h
M14 = test system: M14
NCI/ADR-RES = test system: NCI/ADR-RES
COLO 205 = test system: COLO 205
SK-MEL-5 = test system: SK-MEL-5
A498 = test system: A498
CCRF-CEM = test system: CCRF-CEM
IGROV-1 = test system: IGROV-1
UACC-257 = test system: UACC-257
MOLT-4 = test system: MOLT-4
CAKI-1 = test system: CAKI-1
Hs-578T = test system: Hs-578T
DU-145 = test system: DU-145
T47D = test system: T47D
TK-10 = test system: TK-10
RXF 393 = test system: RXF 393
Malme-3M = test system: Malme-3M
HT-29 = test system: HT-29
HCT-15 = test system: HCT-15
OVCAR-5 = test system: OVCAR-5
MDA-MB-231 = test system: MDA-MB-231
NCI-H226 = test system: NCI-H226
U-251 = test system: U-251
UO-31 = test system: UO-31
SK-OV-3 = test system: SK-OV-3
SF-268 = test system: SF-268
MCF7 = test system: MCF7
SN12C = test system: SN12C
HCT-116 = test system: HCT-116
RPMI-8226 = test system: RPMI-8226
SR = test system: SR
SNB-75 = test system: SNB-75
SF-539 = test system: SF-539
SF-295 = test system: SF-295
ACHN = test system: ACHN
OVCAR-8 = test system: OVCAR-8
NCI-H522 = test system: NCI-H522
MDA-MB-435 = test system: MDA-MB-435
HCC 2998 = test system: HCC 2998
SNB-19 = test system: SNB-19
HOP-92 = test system: HOP-92
MDA-N = test system: MDA-N
KM12 = test system: KM12
SW-620 = test system: SW-620
786-0 = test system: 786-0
OVCAR-4 = test system: OVCAR-4
EKVX = test system: EKVX
NCI-H23 = test system: NCI-H23
HL-60 = test system: HL-60
SK-MEL-28 = test system: SK-MEL-28
LOX IMVI = test system: LOX IMVI
A549 = test system: A549
K562 = test system: K562
UACC-62 = test system: UACC-62
HOP-62 = test system: HOP-62

## OCCC/N=C1N=C(Cl)/C(=C\c2ccccc2)N\1
M14
  GI50: > 100 µM (inactive)
NCI/ADR-RES
  GI50: > 100 µM (inactive)
COLO 205
  GI50: > 100 µM (inactive)
SK-MEL-5
  GI50: > 100 µM (inactive)
A498
  GI50: > 100 µM (inactive)
CCRF-CEM
  GI50: > 100 µM (inactive)
IGROV-1
  GI50: > 100 µM (inactive)
UACC-257
  GI50: > 100 µM (inactive)
MOLT-4
  GI50: > 100 µM (inactive)
CAKI-1
  GI50: > 100 µM (inactive)
Hs-578T
  GI50: > 100 µM (inactive)
DU-145
  GI50: > 100 µM (inactive)
T47D
  GI50: > 100 µM (inactive)
TK-10
  GI50: > 100 µM (inactive)
RXF 393
  GI50: > 100 µM (inactive)
Malme-3M
  GI50: > 100 µM (inactive)
HT-29
  GI50: > 100 µM (inactive)
HCT-15
  GI50: > 100 µM
OVCAR-5
  GI50: > 100 µM (inactive)
MDA-MB-231
  GI50: > 100 µM (inactive)
NCI-H226
  GI50: > 100 µM (inactive)
U-251
  GI50: > 100 µM (inactive)
UO-31
  GI50: > 100 µM (inactive)
SK-OV-3
  GI50: > 100 µM (inactive)
SF-268
  GI50: > 100 µM (inactive)
MCF7
  GI50: > 100 µM (inactive)
SN12C
  GI50: > 100 µM (inactive)
HCT-116
  GI50: > 100 µM (inactive)
RPMI-8226
  GI50: > 100 µM (inactive)
SR
  GI50: > 100 µM (inactive)
SNB-75
  GI50: > 100 µM (inactive)
SF-539
  GI50: > 100 µM (inactive)
SF-295
  GI50: > 100 µM (inactive)
ACHN
  GI50: > 100 µM (inactive)
OVCAR-8
  GI50: > 100 µM (inactive)
NCI-H522
  GI50: > 100 µM (inactive)
MDA-MB-435
  GI50: > 100 µM (inactive)
HCC 2998
  GI50: > 100 µM (inactive)
SNB-19
  GI50: > 100 µM (inactive)
HOP-92
  GI50: > 100 µM (inactive)
MDA-N
  GI50: > 100 µM (inactive)
KM12
  GI50: > 100 µM (inactive)
SW-620
  GI50: > 100 µM (inactive)
786-0
  GI50: > 100 µM (inactive)
OVCAR-4
  GI50: > 100 µM (inactive)
EKVX
  GI50: > 100 µM (inactive)
NCI-H23
  GI50: > 100 µM (inactive)
HL-60
  GI50: > 100 µM (inactive)
SK-MEL-28
  GI50: > 100 µM (inactive)
LOX IMVI
  GI50: > 100 µM (inactive)
A549
  GI50: > 100 µM (inactive)
K562
  GI50: > 100 µM (inactive)

## CCCCCOP(=O)(OCCCCC)C(NC(C)=O)(C(=O)OCC)C(F)(F)F (centres undefined)
M14
  GI50: > 100 µM (inactive)
A498
  GI50: > 100 µM (inactive)
CCRF-CEM
  GI50: > 100 µM (inactive)
MOLT-4
  GI50: > 100 µM (inactive)
DU-145
  GI50: > 100 µM (inactive)
T47D
  GI50: > 100 µM (inactive)
Malme-3M
  GI50: > 100 µM (inactive)
HT-29
  GI50: > 100 µM (inactive)
HCT-15
  GI50: > 100 µM
UACC-62
  GI50: > 100 µM (inactive)
MDA-MB-231
  GI50: > 100 µM (inactive)
U-251
  GI50: > 100 µM (inactive)
UO-31
  GI50: > 100 µM (inactive)
SK-OV-3
  GI50: > 100 µM (inactive)
SF-268
  GI50: > 100 µM (inactive)
MCF7
  GI50: > 100 µM (inactive)
SN12C
  GI50: > 100 µM (inactive)
HCT-116
  GI50: > 100 µM (inactive)
RPMI-8226
  GI50: > 100 µM (inactive)
SR
  GI50: > 100 µM (inactive)
SNB-75
  GI50: > 100 µM (inactive)
SF-539
  GI50: > 100 µM (inactive)
ACHN
  GI50: > 100 µM (inactive)
NCI-H522
  GI50: > 100 µM (inactive)
MDA-MB-435
  GI50: > 100 µM (inactive)
HCC 2998
  GI50: > 100 µM (inactive)
MDA-N
  GI50: > 100 µM (inactive)
EKVX
  GI50: > 100 µM (inactive)
HOP-62
  GI50: > 100 µM (inactive)
HL-60
  GI50: > 100 µM (inactive)
SK-MEL-28
  GI50: > 100 µM (inactive)
K562
  GI50: > 100 µM (inactive)
